For assay [1], the target named is T1, 3-phosphoinositide-dependent protein kinase 1 (Homo sapiens) (UniProt O15530).
T1 sequence (whole entry): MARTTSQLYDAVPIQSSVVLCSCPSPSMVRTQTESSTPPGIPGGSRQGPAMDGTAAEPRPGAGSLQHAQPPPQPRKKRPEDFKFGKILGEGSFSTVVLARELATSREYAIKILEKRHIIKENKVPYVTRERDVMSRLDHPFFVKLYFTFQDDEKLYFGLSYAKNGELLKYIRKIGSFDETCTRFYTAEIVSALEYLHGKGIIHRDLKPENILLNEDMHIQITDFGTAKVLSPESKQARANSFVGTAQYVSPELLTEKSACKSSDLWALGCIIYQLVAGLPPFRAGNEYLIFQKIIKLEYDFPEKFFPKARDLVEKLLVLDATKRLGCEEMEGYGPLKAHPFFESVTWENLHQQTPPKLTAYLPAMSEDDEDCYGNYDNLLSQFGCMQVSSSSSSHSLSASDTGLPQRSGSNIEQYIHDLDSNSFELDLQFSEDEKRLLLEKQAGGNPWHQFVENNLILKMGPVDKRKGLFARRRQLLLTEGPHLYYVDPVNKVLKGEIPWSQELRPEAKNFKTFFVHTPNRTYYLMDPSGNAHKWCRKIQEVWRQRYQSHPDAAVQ
Nature of the assay: Inhibition of PDK1 (unknown origin) at 10 uM using PDKtide substrate and [gamma-32P]ATP by scintillation counting method.

Assay [2] addresses T2, 3-phosphoinositide-dependent protein kinase 1 (Homo sapiens, UniProt O15530).
T2 sequence (O15530 whole entry): T1 sequence (whole entry)
Nature of the assay: Inhibition of PDK1 (unknown origin) using PDKtide substrate and [gamma-32P]ATP by scintillation counting method.

pIC50: −log10 of the molar value.

`N#Cc1cccc(Nc2cc3cc(NC(=O)N4CCCC4)ccc3[nH]c2=O)c1`: in assay [1], the inhibition – broadly, the relative decrease from the control value, in per cent – stood at 30%.

`COc1cccc(-c2cccc(Nc3cc4cc(NC(=O)N5CCCC5)ccc4[nH]c3=O)c2)c1` yielded an inhibition in assay [1] of 29%.

Compound `NC(=O)Nc1ccc2[nH]c(=O)c(Nc3cc(CC(=O)NCCN4CCCCC4)cc(NC(=O)N4CCCC4)c3)cc2c1` showed an inhibition in assay [1] of 40%.

In turn, `O=C(Cc1ccc2[nH]c(=O)c(Nc3ccccc3)cc2c1)NCCN1CCCCC1` displayed an inhibition in assay [1] of 36%.

As for `CCOc1cccc(Nc2cc3cc(NC(=O)N4CCCC4)ccc3[nH]c2=O)c1`, the inhibition in assay [1] came to 23%.

On to `NC(=O)Nc1ccc2[nH]c(=O)c(Nc3cccc(NC(=O)N4CCCC4)c3)cc2c1`, for which the inhibition in assay [1] was 40%.

As to `CN[C@@H]1CCc2ccccc21`, the pIC50 (in general, −log10 of the IC50, conventionally taken in molar units) in assay [2] was 6.70.

As to `CC(=O)Nc1cccc(Nc2cc3cc(NC(N)=O)ccc3[nH]c2=O)c1`, the inhibition in assay [1] was determined as 20%.

The compound `O=C(Nc1ccc2[nH]c(=O)c(Nc3cccc(-c4nnn[nH]4)c3)cc2c1)N1CCCC1` yielded an inhibition in assay [1] of 14%.

The record behind these values is ChEMBL document CHEMBL3351983, “Synthesis and biological evaluation of substituted 3-anilino-quinolin-2(1H)-ones as PDK1 inhibitors” (Bioorg Med Chem, 2014).
